# Read-outs that look alike come from different tables or passages of the source.
# Assays:
# PfHsp70-1 [1] = experiment: Self-association of PfHsp70-1 by MP-SPR; type: binding, Plasmodium falciparum
# Procedure: (§6) As ligands, the recombinant Hsp70 proteins were immobilized on the CMD3D 500L chip. The analyte (respective Hsp70 protein) was prepared at various concentrations of 0, 125, 250, 500, 1000 and 2000 nM, respectively and injected at 50 μL/sec onto each channel with immobilized ligands. A reference channel without immobilized protein served as the control for non-specific binding and changes in refractive index. The analysis was conducted either in the absence or presence of 5 mM ATP/ADP. Association was allowed for 2 min, while dissociation was monitored for 8 min. Data analysis was conducted after double referencing by subtraction of both the baseline RU (buffer with ATP/ADP plus BSA as control protein) and RU from the reference channel. Kinetics steady-state equilibrium constant data were processed after concatenating the responses of all five analyte concentrations by global fitting using TraceDrawer software version 1.8 (Ridgeview Instruments).
# [2] = Heat stability of secondary structure by far-UV CD; type: physicochemical; settings: far-UV CD at 222 nm
# Procedure: Spectra was averaged for 15 scans after baseline correction (buffer without recombinant protein). The spectra were deconvoluted to α-helix, β-sheet, β-turn and unordered regions, using the Dichroweb server, (http://dichroweb.cryst.bbk.ac.uk; [37]). The effect of heat stress on the secondary structure of the Hsp70s was investigated by monitoring the spectral changes of each protein at various temperatures (19–95 °C). The folded states of each Hsp70 protein at any given temperature were determined using spectral readings obtained at 222 nm as previously described. In a separate experiment, the analysis of PfAdoMetDC protein co-expressed with the various chaperone sets was conducted by monitoring the CD spectrum at 190–240 nm at 22 °C. The assay was repeated in the presence of PfAdoMetDC substrate, S-adenosylmethionine hydrochloride (SAM), as previously described with minor modifications. Briefly, PfAdoMetDC protein was preincubated in PBS supplemented with 100 μM SAM for 30 min prior to analysis at 25 °C. The resultant spectra were monitored and averaged following baseline correction (100 μM SAM using buffer void of the protein).
# [3] = ATPase activity (released inorganic phosphate); type: biochemical; settings: basal ATPase, 0.4 μM Hsp70, ATP 0-5 mM, buffer HKMD pH 7.5, SD of three independent assays
# Procedure: (§7) Hsp70 proteins at final concentration of 0.4 μM were each incubated for 5 min in buffer HKMD (10 mM HEPES-KOH pH 7.5, 100 mM KCl, 2 mM MgCl2 and 0.5 mM DTT). The reaction was initiated by the addition of ATP at various concentrations (0–5 mM) and samples were analyzed every 30 min for 4 h.
# PfAdoMetDC = experiment: Co-expression of PfAdoMetDC with supplementary chaperones in E. coli, fold by CD/fluorescence; type: cell-based, Plasmodium falciparum; settings: co-expression with DnaJ in E. coli BL21 Star (DE3); purified PfAdoMetDC analysed by CD, ANS and intrinsic fluorescence
# Procedure: Briefly, the transformed E. coli BL21 Star (DE3) cells were cultured in LB broth supplemented with 100 μg/mL ampicillin (Sigma Aldrich) to select for pASKIBA3 and 50 μg/mL spectinomycin (Sigma Aldrich), to select for pBB535 and pBB542, respectively. As control, PfAdoMetDC expressed alone (without supplementary chaperones), was expressed in E. coli BL21 StarTM (DE3) cells as previously described [33]. The expression of chaperones was initiated by addition of 1 mM IPTG and at OD600 = 0.2 while the expression of PfAdoMetDC was initiated by addition of 2 ng/mL anhydroxytetracycline (AHT) (IBA GmbH, Göttingen, Germany) at OD600 = 0.7. Cells were incubated for 24 h (37 °C, 250 rpm) from the time of induction with IPTG. The cells were harvested by centrifugation (5000 g, 20 min, 4 °C) and the pellet was resuspended in lysis buffer (100 mM Tris pH 7.5; 300 mM NaCl; 10 mM Imidazole, containing 1 mM aminoethyl benzenesulfonyl fluoride hydrochloride (AEBSF) and 1 mg/mL of lysozyme). […] Purified PfAdoMetDC protein was quantified using the Bradford assay. […] Following Strep-Tactin Sepharose affinity column purification, PfAdoMetDC was analyzed using an Äkta explorer system (Amersham Pharmacia Biotech; Buckinghamshire, UK) fast protein liquid chromatography (FPLC), to determine migration profiles of the protein preparations that were co-expressed with the various chaperones sets. The migration pattern of PfAdoMetDC as determined by Size exclusion chromatography (SEC) was used to infer the compact/relaxed state of its fold. Retention times of the respective protein preparation were determined by SEC at 22 °C in running buffer (50 mM Tris-HCl, pH 7.5, 1 mM DTT, 500 mM NaCl and 0.02% w/v NaN3) using Bio-Select SEC 250-5 column (BioRad) with a fractionation range of 1000–250,000 Da. […] The elution profiles of the protein preparations were determined as peaks obtained at 280 nm using a Spectra Series UV100 spectrophotometer (Thermo Fischer Scientific). […]
# KPf [4] = experiment: ATP binding affinity by MP-SPR, KPf; set-up: species or system E. coli / P. falciparum; settings: read-out: ATP KD (± standard deviation), 25 °C, immobilized KPf, ATP analyte 0-20 μM, steady state equilibrium, three independent assays
# Procedure: This assay was conducted at room temperature (25 °C) using a BioNavis Multi-parametric surface plasmon resonance (MP-SPR; BioNavis; Tampere, Finland) spectroscopy system. […] Steady state equilibrium constant data were processed and analyzed using TraceDrawer software version 1.8 (Ridgeview Instruments; Uppsala, Sweden).
# Proteins Vmax (n/mol/min/mg) Km (µM)
# (§1) Standard deviations shown represent three
# (§2) independent assays made using separate protein purification batches. Statistical significance of data was
# KD /µM (± standard deviation)
# (§3) The standard deviations shown in parenthesis were […]
# KPf [5] = settings: MP-SPR; for effect of N enrichment of the peptide on affinity of KPf: presence of 5 mM ADP, N-enriched form versus this peptide
# Target sequence in this assay (P11144 405-631 limits assumed): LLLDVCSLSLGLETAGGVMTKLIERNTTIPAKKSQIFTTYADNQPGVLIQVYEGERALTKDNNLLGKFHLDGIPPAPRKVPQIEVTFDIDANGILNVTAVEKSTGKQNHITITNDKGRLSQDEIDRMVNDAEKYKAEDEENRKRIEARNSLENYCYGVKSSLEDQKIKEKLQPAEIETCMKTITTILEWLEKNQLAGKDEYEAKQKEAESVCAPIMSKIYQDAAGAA
# Procedure: The respective affinity of each Hsp70 for model peptide substrate was investigated by MP-SPR. The Hsp70 ligands were immobilized as previously described [36]. […] The analytes were injected at varying concentrations (0, 125 nM, 250 nM, 500 nM, 1000 nM and 2000 nM) over the immobilized ligands (Hsp70s). The analytes were injected at a flow rate of 100 µL/min and association and dissociation were allowed to occur for 10 min. The assay was conducted both in the absence and presence of 5 mM ADP/ATP. Analysis of association and dissociation data was conducted as previously described using TraceDrawer software version 1.8 (Ridgeview Instruments).
# DnaK [6] = target: T1, DnaK (Escherichia coli, UniProt P0A6Y8); experiment: Model peptide substrate binding by MP-SPR, DnaK; set-up: His6 (polyhistidine) (N); made in house; host or cells: E. coli XL1 Blue; settings: for effect of asparagine enrichment of the peptide on DnaK's affinity: presence of ADP, N-enriched form versus this peptide; for affinity of DnaK for peptide: peptide 0-2000 nM over immobilized DnaK, presence of ADP (5 mM)
# From the text: (§4) The Hsp70 ligands were immobilized as previously described.
# Target sequence in this assay (P0A6Y8 whole entry): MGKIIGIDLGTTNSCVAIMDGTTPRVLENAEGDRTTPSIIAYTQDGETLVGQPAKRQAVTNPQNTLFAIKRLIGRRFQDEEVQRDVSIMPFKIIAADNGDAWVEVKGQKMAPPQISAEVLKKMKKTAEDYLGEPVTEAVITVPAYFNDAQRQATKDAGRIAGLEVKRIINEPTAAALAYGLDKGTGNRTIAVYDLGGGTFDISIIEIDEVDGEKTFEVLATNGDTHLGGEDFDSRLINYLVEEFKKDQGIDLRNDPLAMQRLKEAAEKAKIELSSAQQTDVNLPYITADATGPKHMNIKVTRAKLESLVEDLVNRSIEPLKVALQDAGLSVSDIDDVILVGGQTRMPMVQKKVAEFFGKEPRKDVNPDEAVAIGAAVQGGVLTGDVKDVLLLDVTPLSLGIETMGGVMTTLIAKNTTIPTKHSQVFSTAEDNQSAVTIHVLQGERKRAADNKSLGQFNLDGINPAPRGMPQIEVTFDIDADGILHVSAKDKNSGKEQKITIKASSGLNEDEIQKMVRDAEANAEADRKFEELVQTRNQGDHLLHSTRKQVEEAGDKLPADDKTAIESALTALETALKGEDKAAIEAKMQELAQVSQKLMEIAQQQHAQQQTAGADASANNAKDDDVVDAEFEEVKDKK
# PfHsp70-1 [7] = experiment: Model peptide substrate binding by MP-SPR, PfHsp70-1; set-up: species or system Plasmodium falciparum; settings: for affinity of PfHsp70-1 relative to the non-enriched peptide (GFRVVLMYRF, ALLLMYRR): presence of ADP
# From the text: as §4
# KPf [8] = settings: SD, n = 3
# From the text: as §1, §2
# (§5) Table S2. Comparative ATP binding affinities for the Hsp70 proteins
# as §3
# DnaK [9] = target: T1, DnaK; experiment: Steady-state multi-parametric surface plasmon resonance at 25 °C with Hsp70 immobilised by amine coupling and ATP (0-20 uM) injected as analyte.; type: binding; set-up: recombinant full-length, N-terminal His6 tag (pQE30), expressed in E. coli XL1 Blue; settings: SD, n = 3; read-out: KD /µM (± standard deviation)
# Procedure: Association was allowed for 2 min and dissociation was monitored for 8 min.
# as §1, §2, §5, §3
# Target sequence in this assay (P0A6Y8 2-638): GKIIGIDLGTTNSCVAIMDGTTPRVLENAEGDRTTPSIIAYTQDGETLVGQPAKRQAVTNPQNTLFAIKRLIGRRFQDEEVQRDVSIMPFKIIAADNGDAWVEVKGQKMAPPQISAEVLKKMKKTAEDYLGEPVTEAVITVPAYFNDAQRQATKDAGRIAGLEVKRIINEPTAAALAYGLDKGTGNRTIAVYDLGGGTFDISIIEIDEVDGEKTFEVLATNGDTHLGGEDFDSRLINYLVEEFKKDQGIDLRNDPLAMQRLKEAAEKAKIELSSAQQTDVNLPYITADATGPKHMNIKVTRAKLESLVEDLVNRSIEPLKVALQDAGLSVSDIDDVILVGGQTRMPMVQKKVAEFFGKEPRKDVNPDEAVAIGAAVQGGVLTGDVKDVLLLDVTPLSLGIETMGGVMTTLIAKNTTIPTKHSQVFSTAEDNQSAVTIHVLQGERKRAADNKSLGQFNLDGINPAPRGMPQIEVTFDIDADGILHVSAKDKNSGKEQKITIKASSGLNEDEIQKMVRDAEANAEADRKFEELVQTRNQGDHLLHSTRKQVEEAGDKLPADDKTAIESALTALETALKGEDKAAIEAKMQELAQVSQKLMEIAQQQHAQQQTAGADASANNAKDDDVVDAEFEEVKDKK
# KPf [10] = settings: read-out: Km (µM), + PfHsp40; SD, n = 3
# Procedure: as §7
# Standard deviations shown represent three independent assays made using separate protein purification batches.
# validated by one way ANOVA test (p< 0.05 *) and (p<0.01**).
# DnaK [11] = target: T1, DnaK; settings: MP-SPR
# Target sequence in this assay (P0A6Y8 whole entry): as the sequence (P0A6Y8 whole entry) above
# Procedure: as §6
# [12] = 0.2 μM protein in PBS pH 7.5, 19–95 °C
# PfHsp70-1, sequence (P11144 1-630 limits assumed): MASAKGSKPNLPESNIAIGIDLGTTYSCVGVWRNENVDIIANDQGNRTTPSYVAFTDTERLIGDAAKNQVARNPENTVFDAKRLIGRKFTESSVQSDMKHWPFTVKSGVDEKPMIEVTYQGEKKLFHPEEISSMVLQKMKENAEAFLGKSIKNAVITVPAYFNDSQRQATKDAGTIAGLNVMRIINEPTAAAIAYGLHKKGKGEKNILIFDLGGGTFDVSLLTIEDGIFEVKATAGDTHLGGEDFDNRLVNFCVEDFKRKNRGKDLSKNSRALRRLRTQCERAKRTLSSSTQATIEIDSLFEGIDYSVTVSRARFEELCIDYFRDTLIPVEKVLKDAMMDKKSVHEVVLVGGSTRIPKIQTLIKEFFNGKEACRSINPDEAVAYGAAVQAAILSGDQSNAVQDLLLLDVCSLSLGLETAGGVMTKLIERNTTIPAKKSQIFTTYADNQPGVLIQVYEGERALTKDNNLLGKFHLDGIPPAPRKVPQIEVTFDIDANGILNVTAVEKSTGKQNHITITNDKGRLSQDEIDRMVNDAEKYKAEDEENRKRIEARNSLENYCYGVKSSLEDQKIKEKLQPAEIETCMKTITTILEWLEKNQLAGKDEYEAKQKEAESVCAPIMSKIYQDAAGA
compound,measurement,setting,value
"PfHsp70-1: recombinant Plasmodium falciparum Hsp70-1, cytosol-localized molecular chaperone (PF3D7_0818900)",association rate constant (kon),"PfHsp70-1 [1]; analyte PfHsp70-1 0-2000 nM over immobilized PfHsp70-1, + 5 mM ATP",2.14 (±0.04) × 10^4 Ms^−1
same,association rate constant (kon),"PfHsp70-1 [1]; analyte PfHsp70-1 over immobilized PfHsp70-1, + 5 mM ADP",1.00 (±0.17) × 10^2 Ms^−1
same,association rate constant (kon),"PfHsp70-1 [1]; analyte PfHsp70-1 over immobilized PfHsp70-1, no nucleotide",8.51 (±1.20) × 10^3 Ms^−1
same,temperature of complete unfolding,[2]; [12],around 90 °C
same,temperature up to which at least 50% fold is maintained,"[2]; 0.2 μM protein in PBS pH 7.5, 19–95 °C, relative to 19 °C",60 °C
same,temperature range of second unfolding phase,[2]; two-step unfolding pattern,75–90 °C
same,Vmax,[3],22.45 (± 1.8) n/mol/min/mg
same,effect of co-produced chaperone on PfAdoMetDC folding,PfAdoMetDC,fully folded status
Nc1ncnc2c1ncn2[C@@H]1O[C@H](COP(=O)(O)OP(=O)(O)OP(=O)(O)O)[C@@H](O)[C@H]1O [ATP],Kd,KPf [4],0.38 µM
GFRVVLMYRF [canonical Hsp70 model peptide substrate],effect of N enrichment of the peptide on affinity of KPf,KPf [5],not enhanced
same,effect of asparagine enrichment of the peptide on DnaK's affinity,DnaK [6],did not enhance
GFRNNNMYRF,"affinity of PfHsp70-1 relative to the non-enriched peptide (GFRVVLMYRF, ALLLMYRR)",PfHsp70-1 [7],higher affinity
GroEL: E. coli chaperonin co-expressed as supplementary chaperone,effect of co-produced chaperone on PfAdoMetDC folding,PfAdoMetDC,restoration of the ß-conformation
"Nc1ncnc2c1ncn2[C@@H]1O[C@H](COP(=O)(O)OP(=O)(O)OP(=O)(O)O)[C@@H](O)[C@H]1O [ATP, adenosine 5'-triphosphate]",Km,KPf [8],29.6 µM
same,Kd,DnaK [9],83.8 µM
same,Km,KPf [10],25.7 µM
NRNNTG [asparagine-enriched form of NRLLTG],affinity of KPf for peptide,"KPf [5]; peptide over immobilized KPf, presence of ADP, higher than for NRLLTG",nanomolar range
same,affinity of DnaK for peptide,DnaK [6],micromolar range
same,affinity of PfHsp70-1 for peptide,"PfHsp70-1 [7]; peptide over immobilized PfHsp70-1, presence of ADP, higher than for NRLLTG",nanomolar range
DnaK: recombinant (His)6-tagged Escherichia coli Hsp70 (DnaK),temperature above which the protein rapidly unfolded,[2]; [12],above 45 °C
same,temperature of complete unfolding,[2]; [12],approximately 68 °C
same,Vmax,[3],14.33 (± 1.4) n/mol/min/mg
same,Ka,"DnaK [11]; analyte DnaK 0-2000 nM over immobilized DnaK, + 5 mM ATP, global fit",1.38 (±0.08) × 10^2 Ms^−1
same,Ka,"DnaK [11]; analyte DnaK over immobilized DnaK, + 5 mM ADP",1.22 (±0.13) × 10^2 Ms^−1
same,Ka,"DnaK [11]; analyte DnaK over immobilized DnaK, no nucleotide",1.27 (±0.07) × 10^3 Ms^−1
same,effect of co-produced chaperone on PfAdoMetDC folding,PfAdoMetDC,did not support PfAdoMetDC folding
ALLLMYRR [canonical Hsp70 model peptide substrate],effect of N enrichment of the peptide on affinity of KPf,KPf [5],not enhanced
same,effect of asparagine enrichment of the peptide on DnaK's affinity,DnaK [6],did not enhance
NRLLTG [canonical Hsp70 model peptide substrate],affinity of DnaK for peptide,DnaK [6],nanomolar range
ANNNMYRR,"affinity of PfHsp70-1 relative to the non-enriched peptide (GFRVVLMYRF, ALLLMYRR)",PfHsp70-1 [7],higher affinity

# — paper PMC7356358 (Biomolecules, 2020)
